Measured values taken from patent US9233957B2, “5-carbamoyl-adamantan-2-yl amide derivatives, pharmaceutically acceptable salts thereof and preparation process thereof” (SK BIOPHARMACEUTICALS CO., LTD., priority 2011, dated 2016).

Legend:
Human 11b-HSD1 = target: T1, Human 11b-HSD1 (Homo sapiens, UniProt P28845); test: Inhibition of cortisone-to-cortisol conversion in CHO-K1 cells over-expressing human 11b-HSD1 (HTRF cortisol assay); format: cell-based; details: CHO-K1 cells over-expressing human 11b-HSD1, 160 nM cortisone, 3 hours, 37° C.
T1 construct: expressed in transfected cells
Description: (§1) cDNA (human: Accession No. U12978.2; mouse: Accession No. NM_008288.2) coding the full-length amino acid sequence of 11β-HSD1 in a human and a mouse was incorporated into pMSCVpuro (from Clontech. Co. Ltd.), a vector of expressing a mammalian cell for the production of a retrovirus, and the resulting product was introduced into a GP2-293 cell (from Clontech Co. Ltd.), a retrovirus packing cell line together with pVSV-G vector (from Clontech Co. Ltd.) by using a Lipotamine plus reagent (from Invitrogen Co. Ltd.) in accordance with the method set forth in the appendix (by using HTRF cortisol assay kit from Cisbio assays Co., Ltd., catalog No. 62CO2PEB) and stabilized for 48 hours. Thereafter, viruses being obtained from those cells were used to infect CHO-K1 cell (from Korean Cell Line Bank, KCLB No. 10061) and in 24 hours, the cells were treated with 10 μg/ml pumycin (from Sigma Co. Ltd.) for two weeks to produce a stabilized cell system wherein each 11β-HSD1 in humans or in mice was over-expressed. When the cells being maintained, 5 μg/ml of puromycin was put into the medium and used (RPMI (Gibco), 37° C.). • Reference material: The EMBO Journal (2008) 27, 642-653
(§2) The obtained cells with 11b-HSD1 in a human and a mouse being over-expressed were sub-cultured in a 96-well plate with a cell number being 3×10^4 cells per well and stabilized for 24 hours [RPMI (Gibco), at 37° C., as being used in 5 days after thawing]. After a medium as diluted with DMSO including 160 nM of cortisone (from Sigma Co. Ltd.) and a test compound at a different concentration was put into each well in an amount of 200 ul, the well was cultured in a cell cultivator at 37° C. for 3 hours. 10 ul of the cultured solution was put into a 384 well plate and the amount of cortisol as generated was measured using a cortisol kit (from Cisbio international Co. Ltd, HTRF assay) in accordance with the method set forth in the appended manual.
(§3) As a control group, 160 nM of cortisone and 1% of DMSO were put into a corresponding well. The ground value was obtained from a well including only 160 nM of cortisone and 1% of DMSO without cells just like the control group. The calculation for a % inhibition level was made following the manual as appended. • Reference material: The Journal of Steroid Biochemistry and Molecular Biology, Volume 104, Issues 3-5, May 2007, Pages 123-129 • Bioorganic & Medicinal Chemistry Letters Volume 19, Issue 10, 15 May 2009, Pages 2674-2678
(§4) Like the analyzing method as stated above, the efficacy of inhibiting 11b-HSD1 was calculated as IC50 and the results are shown in Table 1: […]

Mouse 11b-HSD1 = target: T2, Mouse 11b-HSD1 (Mus musculus, UniProt P50172); test: Inhibition of cortisone-to-cortisol conversion in CHO-K1 cells over-expressing mouse 11b-HSD1 (HTRF cortisol assay); format: cell-based; details: CHO-K1 cells over-expressing mouse 11b-HSD1, 160 nM cortisone, 3 hours, 37° C.
T2 construct: expressed in transfected cells
Description: as §1, §2, §3, §4

T1 sequence (P28845 whole entry): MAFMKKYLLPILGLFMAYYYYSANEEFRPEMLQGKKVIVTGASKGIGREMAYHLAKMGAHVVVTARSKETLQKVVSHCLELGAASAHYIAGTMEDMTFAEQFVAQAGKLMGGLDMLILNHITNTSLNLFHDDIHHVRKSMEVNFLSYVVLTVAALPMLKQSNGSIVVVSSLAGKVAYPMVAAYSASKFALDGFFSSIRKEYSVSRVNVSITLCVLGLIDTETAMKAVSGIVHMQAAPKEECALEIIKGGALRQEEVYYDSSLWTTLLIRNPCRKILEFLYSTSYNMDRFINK
T2 sequence (P50172 whole entry): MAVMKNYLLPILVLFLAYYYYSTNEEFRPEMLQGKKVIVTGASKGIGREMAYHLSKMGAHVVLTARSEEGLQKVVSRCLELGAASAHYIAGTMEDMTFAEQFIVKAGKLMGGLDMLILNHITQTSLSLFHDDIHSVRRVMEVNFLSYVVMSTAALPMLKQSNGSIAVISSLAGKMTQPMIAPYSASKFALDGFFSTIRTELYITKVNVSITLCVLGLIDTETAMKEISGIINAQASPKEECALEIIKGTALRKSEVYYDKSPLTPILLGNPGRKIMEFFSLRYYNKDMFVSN

Row | Compound | IC50 (Human 11b-HSD1) [nM] | IC50 (Mouse 11b-HSD1) [nM]
1 | Cc1cccc(-c2cc(C(=O)N[C@H]3C4CC5CC3C[C@](C(N)=O)(C5)C4)no2)c1 [Example 6, N-(5-carbamoyl-2-adamantyl)-5-(3-methylphenyl)-1,2-oxazole-3-carboxamide] | > 500 | > 500
2 | Cc1ccccc1-c1cc(C(=O)N[C@H]2C3CC4CC2C[C@](C(N)=O)(C4)C3)no1 [Example 8, N-(5-carbamoyl-2-adamantyl)-5-(2-methylphenyl)-1,2-oxazole-3-carboxamide] | 100 to 500 | > 500
3 | NC(=O)[C@]12CC3CC(C1)[C@@H](NC(=O)c1ccccn1)C(C3)C2 [Example 16, N-(5-carbamoyl-2-adamantyl)pyridine-2-carboxamide] | > 500 | > 500
4 | NC(=O)[C@]12CC3CC(C1)[C@@H](NC(=O)c1cc(-c4ccc(Cl)cc4)on1)C(C3)C2 [Example 13, N-(5-carbamoyl-2-adamantyl)-5-(4-chlorophenyl)-1,2-oxazole-3-carboxamide] | 100 to 500 | > 500
5 | NC(=O)[C@]12CC3CC(C1)[C@@H](NC(=O)c1ccc(-c4ccc(Cl)cc4)s1)C(C3)C2 [Example 41, N-(5-carbamoyl-2-adamantyl)-5-(4-chlorophenyl)thiophene-2-carboxamide] | < 100 | 100 to 500
6 | NC(=O)[C@]12CC3CC(C1)[C@@H](NC(=O)c1ccc(-c4cc(Cl)cc(Cl)c4)o1)C(C3)C2 [Example 32, N-(5-carbamoyl-2-adamantyl)-5-(3,5-dichlorophenyl)furan-2-carboxamide] | < 100 | 100 to 500
7 | Cc1cccc(C(=O)N[C@H]2C3CC4CC2C[C@](C(N)=O)(C4)C3)[n+]1[O-] [Example 63, N-(5-carbamoyl-2-adamantyl)-6-methyl-1-oxidopyridine-1-ium-2-carboxamide] | 100 to 500 | > 500
8 | Cn1c(C(=O)N[C@H]2C3CC4CC2C[C@](C(N)=O)(C4)C3)ccc1-c1ccc(F)cc1 [Example 36, N-(5-carbamoyl-2-adamantyl)-5-(4-fluorophenyl)-1-methylpyrrole-2-carboxamide] | < 100 | < 100
9 | Cn1c(C(=O)N[C@H]2C3CC4CC2C[C@](C(N)=O)(C4)C3)ccc1-c1cccc(Cl)c1 [Example 33, N-(5-carbamoyl-2-adamantyl)-5-(3-chlorophenyl)-1-methylpyrrole-2-carboxamide] | < 100 | < 100
10 | CCN(CC)c1cccc(C(=O)N[C@H]2C3CC4CC2C[C@](C(N)=O)(C4)C3)n1 [Example 59, N-(5-carbamoyl-2-adamantyl)-6-(diethylamino)pyridine-2-carboxamide] | < 100 | < 100
11 | Cc1ccc(C(=O)N[C@H]2C3CC4CC2C[C@](C(N)=O)(C4)C3)s1 [Example 24, N-(5-carbamoyl-2-adamantyl)-5-methylthiophene-2-carboxamide] | < 100 | 100 to 500
12 | NC(=O)[C@]12CC3CC(C1)[C@@H](NC(=O)c1cccc(OCc4ccccc4)n1)C(C3)C2 [Example 47, N-(5-carbamoyl-2-adamantyl)-6-phenylmethoxypyridine-2-carboxamide] | < 100 | 100 to 500
13 | CC(C)Oc1cccc2ccc(C(=O)N[C@H]3C4CC5CC3C[C@](C(N)=O)(C5)C4)nc12 [Example 52, N-(5-carbamoyl-2-adamantyl)-8-propan-2-yloxyquinoline-2-carboxamide] | < 100 | 100 to 500
14 | CCOc1cccc2ccc(C(=O)N[C@H]3C4CC5CC3C[C@](C(N)=O)(C5)C4)nc12 [Example 51, N-(5-carbamoyl-2-adamantyl)-8-ethoxyquinoline-2-carboxamide] | < 100 | < 100
15 | NC(=O)[C@]12CC3CC(C1)[C@@H](NC(=O)c1cc(-c4cccc(F)c4)on1)C(C3)C2 [Example 12, N-(5-carbamoyl-2-adamantyl)-5-(3-fluorophenyl)-1,2-oxazole-3-carboxamide] | > 500 | > 500

Second part, the compound after the results:

Row | IC50 (Human 11b-HSD1) [nM] | IC50 (Mouse 11b-HSD1) [nM] | Compound
16 | < 100 | 100 to 500 | CCC(C)Oc1cccc2ccc(C(=O)N[C@H]3C4CC5CC3C[C@](C(N)=O)(C5)C4)nc12 (stereo partly shown) [Example 56, 8-butan-2-yloxy-N-(5-carbamoyl-2-adamantyl)quinoline-2-carboxamide]
17 | < 100 | < 100 | CCCOc1cccc(C(=O)N[C@H]2C3CC4CC2C[C@](C(N)=O)(C4)C3)n1 [Example 46, N-(5-carbamoyl-2-adamantyl)-6-propoxypyridine-2-carboxamide]
18 | < 100 | 100 to 500 | COc1cccc(C(=O)N[C@H]2C3CC4CC2C[C@](C(N)=O)(C4)C3)n1 [Example 45, N-(5-carbamoyl-2-adamantyl)-6-methoxypyridine-2-carboxamide]
19 | < 100 | > 500 | NC(=O)[C@]12CC3CC(C1)[C@@H](NC(=O)c1ccc4cccc(OCc5ccccc5)c4n1)C(C3)C2 [Example 53]
20 | < 100 | < 100 | NC(=O)[C@]12CC3CC(C1)[C@@H](NC(=O)c1ccc(-c4cccs4)s1)C(C3)C2 [Example 21, N-(5-carbamoyl-2-adamantyl)-5-thiophen-2-yl-thiophene-2-carboxamide]
21 | < 100 | > 500 | CC(C)COc1cccc2ccc(C(=O)N[C@H]3C4CC5CC3C[C@](C(N)=O)(C5)C4)nc12 [Example 54, N-(5-carbamoyl-2-adamantyl)-8-(2-methylpropoxy)quinoline-2-carboxamide]
22 | < 100 | < 100 | NC(=O)[C@]12CC3CC(C1)[C@@H](NC(=O)c1cccc(N4CCCCC4)n1)C(C3)C2 [Example 58, N-(5-carbamoyl-2-adamantyl)-6-piperidin-1-yl-pyridine-2-carboxamide]
23 | < 100 | 100 to 500 | CCCOc1cccc2ccc(C(=O)N[C@H]3C4CC5CC3C[C@](C(N)=O)(C5)C4)nc12 [Example 49, N-(5-carbamoyl-2-adamantyl)-8-propoxyquinoline-2-carboxamide]
24 | < 100 | < 100 | NC(=O)[C@]12CC3CC(C1)[C@@H](NC(=O)c1ccc(-c4ccccc4F)s1)C(C3)C2 [Example 44, N-(5-carbamoyl-2-adamantyl)-5-(2-fluorophenyl)thiophene-2-carboxamide]
25 | < 100 | > 500 | NC(=O)[C@]12CC3CC(C1)[C@@H](NC(=O)c1ccc(-c4ccc([N+](=O)[O-])cc4)o1)C(C3)C2 [Example 3, N-(5-carbamoyl-2-adamantyl)-5-(4-nitrophenyl)furan-2-carboxamide]
26 | < 100 | 100 to 500 | Cc1ccc(-c2ccc(C(=O)N[C@H]3C4CC5CC3C[C@](C(N)=O)(C5)C4)o2)cc1 [Example 4, N-(5-carbamoyl-2-adamantyl)-5-(4-methylphenyl)furan-2-carboxamide]
27 | < 100 |  | Cc1noc(C)c1COc1cccc(C(=O)N[C@H]2C3CC4CC2C[C@](C(N)=O)(C4)C3)n1 [Example 48, N-(5-carbamoyl-2-adamantyl)-6-[(3,5-dimethyl-1,2-oxazol-4-yl)methoxy]pyridine-2-carboxamide]
28 | < 100 | 100 to 500 | Cn1c(C(=O)N[C@H]2C3CC4CC2C[C@](C(N)=O)(C4)C3)ccc1-c1ccc(Cl)cc1 [Example 35, N-(5-carbamoyl-2-adamantyl)-5-(4-chlorophenyl)-1-methylpyrrole-2-carboxamide]
29 | < 100 | < 100 | CCCNc1cccc(C(=O)N[C@H]2C3CC4CC2C[C@](C(N)=O)(C4)C3)n1 [Example 60, N-(5-carbamoyl-2-adamantyl)-6-(propylamino)pyridine-2-carboxamide]
30 | < 100 | 100 to 500 | NC(=O)[C@]12CC3CC(C1)[C@@H](NC(=O)c1ccc(-c4ccc(F)c(F)c4)o1)C(C3)C2 [Example 29, N-(5-carbamoyl-2-adamantyl)-5-(3,4-difluorophenyl)furan-2-carboxamide]
31 | < 100 | 100 to 500 | Cc1cccc(C(=O)N[C@H]2C3CC4CC2C[C@](C(N)=O)(C4)C3)n1 [Example 15, N-(5-carbamoyl-2-adamantyl)-6-methylpyridine-2-carboxamide]
